Measurements reported in the supplement of paper PMC11451515.

Test system: SEM cells
Assay: cell viability relative to DMSO control; higher = less cytotoxic
Conditions: 48 h
Procedure, shortened: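 Cells were incubated for 48 h at 37°C before CellTiter-Glo One luminescence was read. The cells were NOMO1 or SEM (500 cells/well) or P12-Ichikawa (1000 cells/well) leukemia cells, adapted for at least four passages in each medium and seeded in 1536-well plates (5 μl). Dosing used library compounds in DMSO applied by pin over 11 threefold points, 47 μM to 0.79 nM. Viability is the per-plate percentage of DMSO wells, with cell-free wells as background.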

[1] = HPLM + 10% dialyzed FBS, 0.000781 µM
[2] = HPLM + 10% dialyzed FBS, 0.00234 µM
[3] = HPLM + 10% dialyzed FBS, 0.00702 µM
[4] = HPLM + 10% dialyzed FBS, 0.0211 µM
[5] = HPLM + 10% dialyzed FBS, 0.0632 µM
[6] = HPLM + 10% dialyzed FBS, 0.19 µM
[7] = HPLM + 10% dialyzed FBS, 0.569 µM
[8] = HPLM + 10% dialyzed FBS, 1.71 µM
[9] = HPLM + 10% dialyzed FBS, 5.12 µM
[10] = HPLM + 10% dialyzed FBS, 15.4 µM
[11] = HPLM + 10% dialyzed FBS, 46.1 µM
[12] = RPMI 5 mM glucose + 10% FBS, 0.000781 µM
[13] = RPMI 5 mM glucose + 10% FBS, 0.00234 µM
[14] = RPMI 5 mM glucose + 10% FBS, 0.00702 µM
[15] = RPMI 5 mM glucose + 10% FBS, 0.0211 µM
[16] = RPMI 5 mM glucose + 10% FBS, 0.0632 µM
[17] = RPMI 5 mM glucose + 10% FBS, 0.19 µM
[18] = RPMI 5 mM glucose + 10% FBS, 0.569 µM
[19] = RPMI 5 mM glucose + 10% FBS, 1.71 µM
[20] = RPMI 5 mM glucose + 10% FBS, 5.12 µM
[21] = RPMI 5 mM glucose + 10% FBS, 15.4 µM
[22] = RPMI 5 mM glucose + 10% FBS, 46.1 µM
[23] = RPMI 5 mM glucose + 10% dialyzed FBS, 0.000781 µM
[24] = RPMI 5 mM glucose + 10% dialyzed FBS, 0.00234 µM
[25] = RPMI 5 mM glucose + 10% dialyzed FBS, 0.00702 µM
[26] = RPMI 5 mM glucose + 10% dialyzed FBS, 0.0211 µM
[27] = RPMI 5 mM glucose + 10% dialyzed FBS, 0.0632 µM
[28] = RPMI 5 mM glucose + 10% dialyzed FBS, 0.19 µM
[29] = RPMI 5 mM glucose + 10% dialyzed FBS, 0.569 µM
[30] = RPMI 5 mM glucose + 10% dialyzed FBS, 1.71 µM
[31] = RPMI 5 mM glucose + 10% dialyzed FBS, 5.12 µM
[32] = RPMI 5 mM glucose + 10% dialyzed FBS, 15.4 µM
[33] = RPMI 5 mM glucose + 10% dialyzed FBS, 46.1 µM

SMILES	cell viability [1]	cell viability [2]	cell viability [3]	cell viability [4]	cell viability [5]	cell viability [6]	cell viability [7]	cell viability [8]	cell viability [9]	cell viability [10]	cell viability [11]	cell viability [12]	cell viability [13]	cell viability [14]	cell viability [15]	cell viability [16]	cell viability [17]	cell viability [18]	cell viability [19]	cell viability [20]	cell viability [21]	cell viability [22]	cell viability [23]	cell viability [24]	cell viability [25]	cell viability [26]	cell viability [27]	cell viability [28]	cell viability [29]	cell viability [30]	cell viability [31]	cell viability [32]	cell viability [33]
OC[C@H]1OCC(O1)[N@@]2C=CC(N)=NC2=O (stereo partly specified)	108%	81.3%	90.7%	106%	115%	103%	107%	99.3%	96.3%	102%	96.6%	73.1%	62.4%	77.8%	77.5%	78%	84.2%	80%	64.4%	70.7%	63.8%	56.3%	96.7%	95.8%	96.3%	106%	113%	110%	114%	103%	106%	101%	88.8%
FC1=CC=C(SC/2=N/N3\C=N/C(=O)/C(=C3/C=C2)C4=C(Cl)C=CC=C4Cl)C(=C1)F	79%	85.9%	89.7%	91.1%	92%	88.1%	98.5%	89.7%	88.1%	76.7%	44.9%	97.5%	104%	106%	101%	108%	101%	102%	112%	93.8%	62.9%	20.1%	91.7%	78.6%	95.7%	93.4%	103%	87.5%	83.3%	79.3%	77.2%	73.4%	33.6%
CNc1nccc(-c2cccnc2Oc2cc(C(=O)Nc3cccc(C(F)(F)F)c3)ccc2C)n1	97.2%	101%	115%	113%	118%	104%	122%	113%	109%	90.2%	97.8%	106%	92.6%	99.8%	103%	111%	103%	113%	97.4%	95.9%	72.4%	92.9%	95.8%	97.4%	103%	107%	119%	125%	103%	107%	97.9%	82.9%	97%
O=C(NC[C@H](O)CO)c1ccncc1Nc1ccc(I)cc1F	94.4%	104%	38.1%	118%	106%	105%	88.3%	83.4%	85.7%	85.4%	64.4%	94.4%	97.6%	19.3%	101%	108%	89.2%	85.7%	80.1%	68.3%	64.6%	43.6%	97.2%	108%	35.1%	99%	99.8%	85.3%	84.2%	70.3%	72.7%	56.3%	54.7%
C=CC(=O)N1CCC[C@@H](n2nc(-c3ccc(Oc4ccccc4)cc3)c3c(N)ncnc32)C1												95.1%	127%	112%	99%	128%	110%	102%	99.7%	103%	79.9%	33.5%											
CC(C)CC(=O)N[C@H](C(=O)N[C@H](C(=O)N[C@@H](CC(C)C)[C@@H](O)CC(=O)N[C@@H](C)C(=O)N[C@@H](CC(C)C)[C@@H](O)CC(=O)O)C(C)C)C(C)C	94.4%	89.1%	109%	103%	74.7%	95.9%	101%	108%	97.7%	96.6%	14.5%	82.7%	96.7%	115%	94.7%	68.1%	104%	106%	99%	98.7%	89.6%	10.4%	93.5%	116%	92.2%	93.4%	73.1%	110%	95.5%	99.1%	94.9%	91.6%	10.9%
C/C=C1\C2C=C(C)CC1(N)c1ccc(=O)[nH]c1C2 (stereo unspecified)	103%	108%	120%	109%	28.9%	94.2%	98%	106%	102%	68.1%	98.7%	105%	113%	109%	99.6%	18.2%	103%	106%	114%	104%	88%	96.4%	103%	106%	114%	113%	39.9%	115%	114%	108%	104%	85.6%	98.2%
S=P(N1CC1)(N1CC1)N1CC1	102%	106%	110%	96.7%	104%	107%	103%	98.5%	85.1%	93.3%	39%												99.6%	108%	106%	105%	105%	107%	93.6%	90.4%	95.1%	78.5%	41.5%
